Consider one molecule from PMC6801405, “Discovery of 3-Arylquinoxaline Derivatives as Potential Anti-Dengue Virus Agents” (International Journal of Molecular Sciences, 2019).

Some results are limits rather than exact numbers.

One data set deals with DENV2. Nature of the data set: microbe, parasite or virus in culture. Type of data set: cell-based, dengue virus.
A short description of data set [1]: Cytotoxicity assay (XTT method). Type of data set: cell-based, Human. Particulars: human, mean ± SD. As to the method: For cytotoxicity tests, run in parallel with antiviral assays, plates at an initial density of 5 × 10^3 cells/well were treated with or without serial dilutions of test compounds. Cell viability was determined after 72 h at 37 °C in a humidified CO2 (5%) atmosphere by the (2,3-bis[2-methyloxy-4-nitro-5-sulfophenyl]-2H-tetrazolium-5-carboxanilide) (XTT) method.

The next data set has as its system DENV. Nature of the data set: DENV RNA levels by RT-qPCR in DENV-infected Huh-7 cells. Type of data set: cell-based, dengue virus. Conditions: 0.5, 1, 5 and 10 μM, three days. An excerpt: To further confirm the anti-DENV effect of compound 19a, we treated compound 19a at indicated concentrations in Huh-7 cells for three days.
Total cellular RNA samples were extracted after three days of compound treatment through a Total RNA Miniprep Purification Kit (GeneMark Biolab, Taiwan) following the manufacturer’s instructions, and then transcribed to complementary DNA (cDNA) with Moloney murine leukemia virus (M-MLV) reverse transcriptase (Promega, USA). The levels of DENV-2 replication and COX-2 were analyzed by RT-PCR as described previously with the following specific primers: a forward primer, 5′–[…] AGC–3′, and a reverse primer, 5′–[…]–3′, targeting the DENV-2 NS5 gene 44. DENV-2 and COX-2 RNA levels were normalized to the cellular glyceraldehyde-3-phosphate dehydrogenase (GAPDH) RNA level of each sample.
Figure 2 Inhibition of dengue virus (DENV) RNA expression in DENV-infected Huh-7 cells by 19a. Huh-7 cells were treated with 0.5, 1, 5, and 10 μM 19a for three days. Total RNA was extracted and quantified DENV RNA levels by RT-qPCR. DENV RNA expression was normalized by cellular glyceraldehyde-3-phosphate dehydrogenase (GAPDH) mRNA. Treatment with 0.1% dimethyl sulfoxide (DMSO) served as a mock control. The results are expressed as the means ± standard deviations (SD) of triplicate experiments.
Background: Real-time PCR tracks product formation cycle by cycle.

Description for DENV2: Anti-DENV activities were determined by firefly luciferase activity.
Huh-7-DV-Fluc cells were seeded in 24-well plates at a density of 2 × 10^4 cells per well, and treated with the 3-arylquinoxaline compounds at two concentrations (1 and 10 μM) or 0.1% DMSO as control. After three days of incubation, the luciferase activity assay was performed using the Bright-Glo Luciferase assay system (Promega, Madison, WI, USA) according to the manufacturer’s instructions.

As to `COc1ccc(-c2nc3ccccc3nc2C(O)c2ccccc2)cc1` (stereo not shown) [Compound 19a, [3-(4-Methoxyphenyl)quinoxalin-2-yl](phenyl)methanol], the melting point lay in the range of 160.4 to 161.9 °C. For the same molecule, the “DENV2 % Inhibition at 10 μM” value in the data set on DENV2 (10 μM, Huh-7-DV-Fluc cells, three days, mean ± SD) is given as 82.71 ± 2.88%. Moreover, the “SI (selectivity index, CC50/EC50)” value with DENV2 (CC50 Huh-7 / EC50 DENV) is greater than 155.04. Further, the inhibition at 1 µM in the data set with DENV2 (Dengue virus, DENV2, 72 h, 1 μM, Huh-7-DV-Fluc cells, three days, mean ± SD) is 36.7 ± 3.71%. Moreover, the EC50 in the data set with DENV2 (Dengue virus, DENV2, DENV replication, mean ± SD, read-out: EC50 (concentration resulting in a 50% inhibition in virus production)) is 1290 ± 740 nM. Moreover, the “fold more anti-DENV activity than ribavirin” value in the data set with DENV2 (EC50 compared with ribavirin) is given as “approximately 10 fold”. In addition, in data set [1] (Huh-7 cells, 20 μM, 72 h, XTT, read-out: Huh-7 Cell % viability at 20 μM), the viability at 72 h, 20 µM was found to be 99.7 ± 1.65%. The viability at 72 h, 200 µM in data set [1] (Huh-7 cells, 200 μM, 72 h, XTT, read-out: Huh-7 Cell % viability at 200 μM) stood at 85%. The CC50 at 72 h in data set [1] (uninfected Huh-7 cells, read-out: CC50 (concentration causing a 50% growth inhibition of uninfected Huh-7 cells)) was greater than 200000 nM. Moreover, the “DENV RNA replication (RT-qPCR)” value with DENV is “dose-dependently reduced”.

A word on the inhibition: it is the percentage by which the read-out fell short of the control. A low value points to a weak effect. In general, viability refers to a per cent measure of how many cells are alive, often set against a control. One may read the melting point as the temperature of the solid-liquid transition.
